Data reported in ChEMBL document CHEMBL3259629, “Discovery and optimization of piperidyl-1,2,3-triazole ureas as potent, selective, and in vivo-active inhibitors of α/β-hydrolase domain containing 6 (ABHD6)” (J Med Chem, 2013).

Tests used:
Settings in all cases: Neuro2a, 3 nM
[1] = target: Tripeptidyl-peptidase 2 (Mus musculus) (UniProt Q64514)
Description: Inhibition of Tpp2 in mouse Neuro2a cells at 3 nM after 4 hrs by ABPP-SILAC assay

[2] = target: T1, Hormone-sensitive lipase (Mus musculus) (UniProt P54310)
T1 sequence (whole entry): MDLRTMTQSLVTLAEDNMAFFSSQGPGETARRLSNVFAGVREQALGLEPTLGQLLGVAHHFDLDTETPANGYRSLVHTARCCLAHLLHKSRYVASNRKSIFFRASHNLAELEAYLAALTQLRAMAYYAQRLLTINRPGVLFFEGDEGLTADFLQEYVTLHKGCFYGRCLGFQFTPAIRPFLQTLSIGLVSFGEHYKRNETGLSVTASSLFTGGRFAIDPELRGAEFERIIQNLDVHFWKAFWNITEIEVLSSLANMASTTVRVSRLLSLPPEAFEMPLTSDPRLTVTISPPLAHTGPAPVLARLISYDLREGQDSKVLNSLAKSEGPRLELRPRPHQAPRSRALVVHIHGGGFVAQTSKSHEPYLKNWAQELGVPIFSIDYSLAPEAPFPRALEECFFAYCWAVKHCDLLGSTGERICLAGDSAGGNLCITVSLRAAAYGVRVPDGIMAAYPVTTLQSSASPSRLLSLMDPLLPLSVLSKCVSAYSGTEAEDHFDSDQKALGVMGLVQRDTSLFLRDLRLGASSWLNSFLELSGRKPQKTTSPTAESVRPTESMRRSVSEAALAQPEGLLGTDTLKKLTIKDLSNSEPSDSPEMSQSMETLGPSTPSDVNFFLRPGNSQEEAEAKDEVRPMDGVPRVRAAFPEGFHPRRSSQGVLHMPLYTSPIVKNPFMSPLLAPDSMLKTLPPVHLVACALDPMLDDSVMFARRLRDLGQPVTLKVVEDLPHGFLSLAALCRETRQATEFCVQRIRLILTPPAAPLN
Description: Inhibition of Lipe in mouse Neuro2a cells at 3 nM after 4 hrs by ABPP-SILAC assay

[3] = target: T2, Serine hydrolase-like protein (Mus musculus) (UniProt Q9EPB5)
T2 sequence (whole entry): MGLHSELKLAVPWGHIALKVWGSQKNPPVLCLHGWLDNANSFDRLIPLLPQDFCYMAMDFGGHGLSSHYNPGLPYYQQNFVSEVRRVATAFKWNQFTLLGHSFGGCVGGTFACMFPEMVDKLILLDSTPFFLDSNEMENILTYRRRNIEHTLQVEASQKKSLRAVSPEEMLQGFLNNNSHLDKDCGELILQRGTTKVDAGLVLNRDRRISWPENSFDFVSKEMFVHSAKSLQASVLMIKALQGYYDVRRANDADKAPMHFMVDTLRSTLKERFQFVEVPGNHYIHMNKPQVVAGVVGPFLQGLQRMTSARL
Description: Inhibition of Serhl in mouse Neuro2a cells at 3 nM after 4 hrs by ABPP-SILAC assay

[4] = target: T3, 85/88 kDa calcium-independent phospholipase A2 (Mus musculus) (UniProt P97819)
T3 sequence (whole entry): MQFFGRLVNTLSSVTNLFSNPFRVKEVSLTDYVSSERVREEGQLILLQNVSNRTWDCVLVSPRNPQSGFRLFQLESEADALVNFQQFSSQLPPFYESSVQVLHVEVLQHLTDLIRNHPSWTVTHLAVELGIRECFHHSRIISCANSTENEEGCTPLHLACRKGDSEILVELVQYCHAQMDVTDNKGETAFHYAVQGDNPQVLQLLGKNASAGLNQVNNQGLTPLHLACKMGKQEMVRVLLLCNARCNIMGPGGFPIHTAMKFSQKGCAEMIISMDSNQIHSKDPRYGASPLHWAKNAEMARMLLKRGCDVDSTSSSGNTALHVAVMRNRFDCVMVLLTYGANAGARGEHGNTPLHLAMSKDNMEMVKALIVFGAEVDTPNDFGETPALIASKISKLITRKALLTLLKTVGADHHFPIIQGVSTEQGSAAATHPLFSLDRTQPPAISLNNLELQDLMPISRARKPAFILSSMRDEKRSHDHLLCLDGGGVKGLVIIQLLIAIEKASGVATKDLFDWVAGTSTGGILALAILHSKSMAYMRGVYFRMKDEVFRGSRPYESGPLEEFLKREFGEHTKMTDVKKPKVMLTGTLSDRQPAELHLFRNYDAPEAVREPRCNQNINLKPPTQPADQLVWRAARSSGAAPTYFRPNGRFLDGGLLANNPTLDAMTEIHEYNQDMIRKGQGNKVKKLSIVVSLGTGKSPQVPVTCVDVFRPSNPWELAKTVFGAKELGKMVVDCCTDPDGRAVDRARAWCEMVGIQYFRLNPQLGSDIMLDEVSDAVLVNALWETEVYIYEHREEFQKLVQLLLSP
Description: Inhibition of Pla2g6 in mouse Neuro2a cells at 3 nM after 4 hrs by ABPP-SILAC assay

[5] = target: T4, Protein ABHD13 (Mus musculus) (UniProt Q80UX8)
T4 sequence (whole entry): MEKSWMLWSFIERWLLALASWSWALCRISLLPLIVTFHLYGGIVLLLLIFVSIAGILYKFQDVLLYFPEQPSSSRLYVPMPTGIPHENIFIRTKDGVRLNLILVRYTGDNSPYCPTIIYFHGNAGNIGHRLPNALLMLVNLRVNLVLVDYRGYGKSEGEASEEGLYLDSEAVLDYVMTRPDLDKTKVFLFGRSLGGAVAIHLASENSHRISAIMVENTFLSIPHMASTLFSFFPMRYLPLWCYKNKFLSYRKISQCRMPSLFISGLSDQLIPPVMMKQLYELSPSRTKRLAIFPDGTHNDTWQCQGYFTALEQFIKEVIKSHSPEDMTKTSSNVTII
Description: Inhibition of Abhd13 in mouse Neuro2a cells at 3 nM after 4 hrs by ABPP-SILAC assay

[6] = target: T5, Triacylglycerol hydrolase DDHD2 (Mus musculus) (UniProt Q80Y98)
T5 sequence (whole entry): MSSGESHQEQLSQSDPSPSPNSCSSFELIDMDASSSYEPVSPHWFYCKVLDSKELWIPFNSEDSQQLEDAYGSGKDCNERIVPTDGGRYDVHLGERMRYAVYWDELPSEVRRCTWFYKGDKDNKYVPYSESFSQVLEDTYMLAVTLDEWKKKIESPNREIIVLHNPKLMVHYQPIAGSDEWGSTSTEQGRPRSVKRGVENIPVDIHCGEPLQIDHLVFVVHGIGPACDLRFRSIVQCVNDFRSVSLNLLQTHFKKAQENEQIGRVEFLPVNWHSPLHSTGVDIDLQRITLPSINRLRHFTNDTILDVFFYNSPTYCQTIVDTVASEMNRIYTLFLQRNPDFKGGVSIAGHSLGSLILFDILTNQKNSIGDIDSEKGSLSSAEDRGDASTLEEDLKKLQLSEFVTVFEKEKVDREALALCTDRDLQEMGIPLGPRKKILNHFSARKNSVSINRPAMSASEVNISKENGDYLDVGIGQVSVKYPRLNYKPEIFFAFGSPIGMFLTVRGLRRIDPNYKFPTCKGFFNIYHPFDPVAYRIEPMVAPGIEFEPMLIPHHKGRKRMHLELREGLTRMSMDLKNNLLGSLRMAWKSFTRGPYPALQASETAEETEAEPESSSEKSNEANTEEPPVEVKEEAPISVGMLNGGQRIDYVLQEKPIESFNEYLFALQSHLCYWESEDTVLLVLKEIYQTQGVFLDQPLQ
Description: Inhibition of Ddhd2 in mouse Neuro2a cells at 3 nM after 4 hrs by ABPP-SILAC assay

Measured: inhibition

Chain of Tripeptidyl-peptidase 2 (Mus musculus) (Q64514 whole entry): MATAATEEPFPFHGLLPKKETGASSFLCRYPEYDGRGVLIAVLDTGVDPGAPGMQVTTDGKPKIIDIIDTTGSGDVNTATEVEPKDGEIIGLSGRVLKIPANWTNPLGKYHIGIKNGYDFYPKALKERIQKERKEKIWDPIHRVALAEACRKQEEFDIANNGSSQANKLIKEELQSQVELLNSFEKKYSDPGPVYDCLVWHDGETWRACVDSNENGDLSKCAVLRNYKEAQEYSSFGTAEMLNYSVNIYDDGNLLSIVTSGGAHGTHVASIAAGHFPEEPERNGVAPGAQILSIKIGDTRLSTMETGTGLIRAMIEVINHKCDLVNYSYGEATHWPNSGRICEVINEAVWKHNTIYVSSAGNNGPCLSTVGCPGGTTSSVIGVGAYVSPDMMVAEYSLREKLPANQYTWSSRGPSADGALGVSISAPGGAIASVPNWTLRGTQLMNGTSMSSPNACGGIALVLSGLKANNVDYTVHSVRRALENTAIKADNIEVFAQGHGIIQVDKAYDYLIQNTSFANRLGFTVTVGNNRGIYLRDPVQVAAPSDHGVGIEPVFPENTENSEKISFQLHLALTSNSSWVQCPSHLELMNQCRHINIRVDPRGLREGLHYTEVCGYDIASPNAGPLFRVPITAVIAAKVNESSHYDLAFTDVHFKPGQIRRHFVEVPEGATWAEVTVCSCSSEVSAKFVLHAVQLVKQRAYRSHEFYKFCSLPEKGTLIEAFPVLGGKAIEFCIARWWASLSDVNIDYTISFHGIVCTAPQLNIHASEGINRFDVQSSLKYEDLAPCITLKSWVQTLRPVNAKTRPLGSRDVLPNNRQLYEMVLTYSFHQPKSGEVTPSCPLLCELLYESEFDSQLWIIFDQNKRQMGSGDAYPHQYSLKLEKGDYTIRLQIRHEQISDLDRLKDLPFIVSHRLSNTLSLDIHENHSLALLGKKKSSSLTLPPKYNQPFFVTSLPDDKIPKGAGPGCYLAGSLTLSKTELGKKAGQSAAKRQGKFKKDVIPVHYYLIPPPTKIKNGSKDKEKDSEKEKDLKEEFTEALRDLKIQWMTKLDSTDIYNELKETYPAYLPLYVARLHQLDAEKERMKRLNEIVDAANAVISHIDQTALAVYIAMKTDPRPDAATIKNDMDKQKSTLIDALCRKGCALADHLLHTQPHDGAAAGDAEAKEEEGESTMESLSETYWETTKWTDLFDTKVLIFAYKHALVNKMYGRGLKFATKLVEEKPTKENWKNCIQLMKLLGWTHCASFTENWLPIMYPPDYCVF

O=C(c1cccc(-c2ccc(-c3cn(C(=O)N4CCCCC4c4ccccc4)nn3)cc2)c1)N1CCCCC1 (racemic)
< 50%: all assays above

O=C(N1CCCCC1c1ccccc1)n1cc(-c2ccc(-c3cccc(CO)c3)cc2)nn1 (racemic)
< 50%: all assays above

O=C(O)c1cccc(-c2ccc(-c3cn(C(=O)N4CCCCC4Cc4ccccc4)nn3)cc2)c1 (racemic)
< 50%: all assays above
